Measurements from US5922775A, “Method of treating malignant tumors with ketone thyroxine analogues having no significant hormonal activity” (priority 1997, dated 1999).
Values belong to the compound of their own block, whether it stands above or below them.

Columns and labels:
human cancer cells = details: cited from earlier work; for cytostatic / cytocidal activity: cellular assays and in vivo
[1] = test system: human mammary cancer cells (MDA-MB-231); test: Growth of human mammary cancer cells (Table 2 A); type: cell-based; details: 2 μM
Excerpt: (§1) The effects of these three substances on the growth of human mammary cancer cells (MDA-MB-231) and human lung cancer cells (A 549) are summarized in Table 2.
In section (a) of Table 2 the effects of DIME, DIPE and DIPP on the growth of mammary cancer cells, assayed at 48 and 72 hrs, is shown. […] The slightly lesser efficacy of DIPP could be predicted from earlier results obtained with DIME analogs (International Journal of Oncology, 1997, 10, 689-695, FIG. 1) where we have shown that extending the methyl to ethyl substitution (on the carboxyl ester) diminishes cytotoxicity against tumor cells. A similar phenomenon occurs when DIPE is extended to DIPP (i.e. from the ethanone to the propanone).
(§2) (×10^3) Cell number per 2 cm^2

mammary cancer cells = test: Colony formation by mammary cancer cells (FIG. 1); type: cell-based, human; details: DIME vs DIPE
Excerpt: FIG. 1 is a graph illustrating the cell killing effects of DIME and DIPE on mammary cancer colonies;
The effect of DIME and DIPE on colony formation by mammary cancer cells is illustrated in FIG. 1, where the results are superimposable, confirming that cytocidal action of DIME and DIPE are indistinguishable.

[2] = test system: human lung cancer cells (A 549); test: Growth of human lung cancer cells (Table 2 B); type: cell-based
Excerpt: as §1, §2

[3] = test system: microtubule protein (MTP); test: Microtubule assembly (MTP polymerization) in vitro, optical test at 350 nm; type: biochemical, bovine or rabbit (brain); details: for inhibitory action on MTP assembly (comparison, FIG. 2): drug concentrations up to 20 μM; for order of potency on MTP assembly (FIG. 3): zero to 10 μM drug, lowered GTP concentration (10 μM); for Percent inhibition of intitial velocity (microtubule assembly in vitro): 10 μM drug, GTP 1 mM, 37° C., averages of duplicate assay; for effect of substitution on inhibition of MTP polymerization: compared with DIME
Excerpt: This inhibition is critically dependent on the concentration of GTP. The quantitative correlation between the concentrations of DIME and GTP, under conditions of a linear rate of MTP polymerization, follows Michaelis-Menten kinetics and the inhibition portrays a "mixed" type, where km for GTP and Vmax are altered simultaneously. Chemical analogues of DIME inhibit MTP polymerization parallel to their antitumorigenic action in vivo. The MTP site is one of the early cellular response sites of DIME.
J. Oncol. Abnormal spindle structures could be the result of DIME-MTP interaction or reactions of DIME with components of the microtubule organizing center or with as yet undefined systems sequentially or in concert. Since time-dependent quantitative analysis of the MTP system in situ is unsuitable for initial velocity measurement we adapted the in vitro assembly system of neurotubules as a model for a quantitative analysis of the interaction of DIME with MTP. […] The time course of MTP assembly consists of initiation and propagation and termination steps, Gaskin, et al., 1974, "Turbidimetric studies of the in vitro assembly and disassembly of porcine neurotubules", J. Mol. Biol. 89:737-758. The rate of propagation under defined conditions is sufficiently linear to permit kinetic analysis, that can be evaluated with respect DIME and GTP concentrations. As we show here the inhibition of MTP assembly by DIME occurs in the same range of drug concentration as required to inhibit tumorigonesis in vivo, or to inhibit cell replication or induce eventual cell death; Mendeleyev, et al., 1997. "Structural specificity and tumoricidal action of methyl-3,5-diiodo-4-(4'-methoxyphenoxy)benzoate (DIME)" Int. J. Oncol., 10:689-695. Therefore the DIME-MTP interaction is most probably a component of the apparently pleiotropic cellular mechanism of action of DIME.
Preparation of MTP and an optical test for polymerization was adopted from published methods, Gaskin, et al., 1974, "Turbidimetric studies of the in vitro assembly and disassembly of porcine neurotubules", J. Mol. Biol. 89:737-758; Tiwari, et al., 1993, "A pH and temperature-dependent cycling method that doubles the yield of microtubule protein", Anal. Biochem. 215:96-103. Bovine or rabbit brain was homogenized in an equal volume of ice cold buffer containing 100 mM Pipes/K^+ (pH 7.4), 4 mM EGTA. 1 mM MgCl2, 0.5 mM DTT and 0.1 mM PMSF, and centrifuged at 39,000 g for 1 hour at 4° C. To the supernatant, DMSO (8% final concentration) and GTP (1 mM final concentration) were added, followed by incubation at 37° C. for 30 minutes. Microtubules were pelleted at 100,000 g at 37° C. for 30 minutes. The pellets were incubated on ice for 15 minutes, followed by resuspension in ice cold PEM buffer (100 mM Pipes/K+ (pH 6.9), 1 mM EGTA, 1 mM MgCl2). This warm polymerization and cold depolymerization cycle was repeated once more and the cold, resuspended monomeric MTP (8-10 mg/ml protein) was used for the optical test for polymerization kinetics. Both rabbit or bovine brain yielded identical MTP preparations.
The polymerization reaction was started by the addition of […] of MTP solution (equivalent to 0.8-1.0 mg protein) and initial linear rates of increase in absorbance at 350 nm followed and recorded at 37° C. in a Perkin-Elmer 552 double beam spectrophotometer, equipped with a thermostatically controlled cuvette holder.
It is apparent that the rate of MTP polymerization proceeds in a linear manner, thus conditions for maximal polymerization rates as defined by Berne, B, 1974, "Interpretation of light scattering from long rods", J. Mol. Biol. 89:755-758 appear fulfilled. Therefore it is possible to determine the quantitative correlation between [DIME] and [GTP] by comparing the linear rate in the presence of varying drug and activator concentrations.
The assay system consisted of 240 μl of PEM buffer containing 8% DMSO […]
(added in 3 μl), or solvent control and 0.6 mg MTP (60 μl). […]

cellular esterases = test: Stability against cellular esterases
Excerpt: Moreover, amide analogs of DIME, having an NH2 or a substituted amino group, may be subject to hydrolysis catalyzed by cellular amidases. Since the hydrolysis product of such a hydrolysis is a carboxylic acid, the same decrease in efficacy can result. In order to decrease the chemical lability in the DIME pharmacophore structure, ketone analogues of DIME may be used.
A more detailed kinetic comparison of DIME, DIPE and DIPP on the kinetics of MTP assembly, in a concentration range of zero to 10 μM drug and a louvered GTP concentration (10 μM), is shown in FIG. 3.

E-ras 20 cells = details: carboxylic acid vs methyl ester; cited from earlier work
thyroid iodine uptake = details: rat, in vivo; cited from earlier work
[4] = test system: non-malignant mouse pituitary adenoma; details: cited from earlier work
Rana pipiens tadpoles = details: tadpole metamorphosis; cited from earlier work

SMILES: CCCOc1ccc(Oc2c(I)cc(C(=O)OC)cc2I)cc1 [4'-propoxy homologue]
cytostatic / cytocidal activity (human cancer cells): completely inactive

stability against esterases (cellular esterases): absence of esterase action
SMILES: COc1ccc(Oc2c(I)cc(C(C)=O)cc2I)cc1 [DIPE, 1-[3,5-diiodo-4-(4'-methoxyphenoxy)-phenyl]-ethanone]
Cell number ([1]; 48 hours, control 150): 55 ×10^3 cell number per 2 cm^2 w
Cell number ([1]; 72 hours, control 300): 60 ×10^3 cell number per 2 cm^2 w
effect on colony formation (FIG. 1) (mammary cancer cells): superimposable
Cell number ([2]; 2 μM, 48 hours, control 110): 78 ×10^3 cell number per 2 cm^2 w
Cell number ([2]; 2 μM, 72 hours, control 190): 81 ×10^3 cell number per 2 cm^2 w
Cell number ([2]; 5 μM + BNPP 150 μM (esterase inhibitor), 48 hours, control 110): 37 ×10^3 cell number per 2 cm^2 w
Cell number ([2]; 5 μM + BNPP 150 μM (esterase inhibitor), 72 hours, control 190): 38 ×10^3 cell number per 2 cm^2 w
Cell number ([2]; 5 μM, 48 hours, control 110): 38 ×10^3 cell number per 2 cm^2 w
Cell number ([2]; 5 μM, 72 hours, control 190): 40 ×10^3 cell number per 2 cm^2 w
effect of esterase inhibitor BNPP on cytocidal action ([2]; lung cancer cells, with BNPP): no supportive effect
inhibitory action on MTP assembly (comparison, FIG. 2) [3]: similar
order of potency on MTP assembly (FIG. 3) [3]: DIME>DIPE>DIPP

SMILES: COC(=O)c1cc(I)c(Oc2ccc(OC)cc2Cl)c(I)c1 [2'-chloro analogue of DIME]
maximal inhibitory action on growth as compared to DIME (human cancer cells; human cancer cells): about 25%

SMILES: CCOC(=O)c1cc(I)c(Oc2ccc(OC)cc2)c(I)c1 [Compound 5]
cytostatic / cytocidal activity (human cancer cells): completely inactive
Percent inhibition of intitial velocity (microtubule assembly in vitro) [3]: 35%

SMILES: COc1ccc(Oc2c(I)cc(C(=O)N(C)C)cc2I)cc1 [Compound 9]
Percent inhibition of intitial velocity (microtubule assembly in vitro) [3]: 6%

SMILES: CCC(=O)c1cc(I)c(Oc2ccc(OC)cc2)c(I)c1 [DIPP, 1-[3,5-diiodo-4-(4'-methoxyphenoxy)-phenyl]-1-propanone]
Cell number ([1]; 48 hours, control 150): 90 ×10^3 cell number per 2 cm^2 w
Cell number ([1]; 72 hours, control 300): 145 ×10^3 cell number per 2 cm^2 w
effectiveness relative to DIME and DIPE ([1]; 72 hrs): about one half as effective as the other two drugs
inhibitory action on MTP assembly (comparison, FIG. 2) [3]: similar
order of potency on MTP assembly (FIG. 3) [3]: DIME>DIPE>DIPP

SMILES: CCOc1ccc(Oc2c(I)cc(C(=O)OC)cc2I)cc1 [Compound 2]
maximal cytocidal action as compared to DIME (human cancer cells; human cancer cells): 25-30%
Percent inhibition of intitial velocity (microtubule assembly in vitro) [3]: 76%
effect of substitution on inhibition of MTP polymerization [3]: progressively diminishes inhibition of MTP polymerization

SMILES: CCCCOc1ccc(Oc2c(I)cc(C(=O)OC)cc2I)cc1 [Compound 4]
Percent inhibition of intitial velocity (microtubule assembly in vitro) [3]: 8%
effect of substitution on inhibition of MTP polymerization [3]: progressively diminishes inhibition of MTP polymerization

SMILES: COc1ccc(Oc2c(I)cc(C(=O)O)cc2I)cc1 [Compound 6]
efficacy against tumor cells relative to ester (human cancer cells; carboxylic acid from hydrolysis of the ester): much less efficacy against tumor cells than the ester
antitumorigenic action (E-ras 20 cells): only halves the antitumorigenic action
Percent inhibition of intitial velocity (microtubule assembly in vitro) [3]: 0%
effect of substitution on inhibition of MTP polymerization [3]: completely abolishes the inhibitory effect on MTP polymerization

SMILES: COc1ccc(Oc2c(I)cc(C(N)=O)cc2I)cc1 [Compound 7]
Percent inhibition of intitial velocity (microtubule assembly in vitro) [3]: 43%

SMILES: NC(Cc1cc(I)c(Oc2cc(I)c(O)c(I)c2)c(I)c1)C(=O)O (stereo not drawn) [thyroxine]
suppression of uptake of iodine by the thyroid (thyroid iodine uptake): suppresses uptake of iodine by the thyroid
inhibition of growth of non-malignant pituitary tumor [4]: depress growth of non-malignant mouse pituitary thyrotropic tumors
cell differentiating / metamorphogenic activity (Rana pipiens tadpoles): induces cell differentiation
